# Measurements published in ChEMBL document CHEMBL1201862, “PubChem BioAssay data set” (2004).
#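 Cultured in 96-well plates, cells were exposed to test compound for 48 hours across five concentrations. GI50 is the concentration that inhibits growth by half.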 Activity calls are given as the source filed them. Rule as the data show it: active = GI50 up to about 1.1 µM and inactive = higher.
# Key:
# Assay in all cases: NCI-60 cell line screen, 48 h
# [1] = test system: 786-0
# [2] = test system: A498
# [3] = test system: A549
# [4] = test system: ACHN
# [5] = test system: BT-549
# [6] = test system: CAKI-1
# [7] = test system: CCRF-CEM
# [8] = test system: COLO 205
# [9] = test system: DU-145
# [10] = test system: EKVX
# [11] = test system: HCT-116
# [12] = test system: HCT-15
# [13] = test system: HL-60
# [14] = test system: HOP-62
# [15] = test system: HOP-92
# [16] = test system: HT-29
# [17] = test system: Hs-578T
# [18] = test system: IGROV-1
# [19] = test system: K562
# [20] = test system: KM12
# [21] = test system: LOX IMVI
# [22] = test system: M14
# [23] = test system: MCF7
# [24] = test system: MDA-MB-231
# [25] = test system: MDA-MB-435
# [26] = test system: MDA-N
# [27] = test system: MOLT-4
# [28] = test system: Malme-3M
# [29] = test system: NCI-H226
# [30] = test system: NCI-H23
# [31] = test system: NCI-H460
# [32] = test system: NCI-H522
# [33] = test system: NCI/ADR-RES
# [34] = test system: OVCAR-3
# [35] = test system: OVCAR-4
# [36] = test system: OVCAR-5
# [37] = test system: OVCAR-8
# [38] = test system: PC-3
# [39] = test system: RPMI-8226
# [40] = test system: RXF 393
# [41] = test system: SF-268
# [42] = test system: SF-295
# [43] = test system: SF-539
# [44] = test system: SK-MEL-28
# [45] = test system: SK-MEL-2
# [46] = test system: SK-MEL-5
# [47] = test system: SK-OV-3
# [48] = test system: SN12C
# [49] = test system: SNB-19
# [50] = test system: SW-620
# [51] = test system: T47D
# [52] = test system: TK-10
# [53] = test system: U-251
# [54] = test system: UACC-257
# [55] = test system: UACC-62
# [56] = test system: UO-31
# [57] = test system: HCC 2998
# [58] = test system: SNB-75
smiles,measurement,setting,value
CC1(C)CCC2=C(O1)/C(=N\Nc1ccccc1)c1ccccc1C2=O,GI50,[1],15.8 µM (inactive)
same,GI50,[2],20 µM (inactive)
same,GI50,[3],27.2 µM (inactive)
same,GI50,[4],17.7 µM (inactive)
same,GI50,[5],35.4 µM (inactive)
same,GI50,[6],24 µM (inactive)
same,GI50,[7],56.1 µM (inactive)
same,GI50,[8],31.8 µM (inactive)
same,GI50,[9],29.8 µM (inactive)
same,GI50,[10],20.9 µM (inactive)
same,GI50,[11],16.9 µM (inactive)
same,GI50,[12],29.6 µM
same,GI50,[13],35.8 µM (inactive)
same,GI50,[14],35.4 µM (inactive)
same,GI50,[15],24 µM (inactive)
same,GI50,[16],15.9 µM (inactive)
same,GI50,[17],35.6 µM (inactive)
same,GI50,[18],34.6 µM (inactive)
same,GI50,[19],39.9 µM (inactive)
same,GI50,[20],32.8 µM (inactive)
same,GI50,[21],22 µM (inactive)
same,GI50,[22],31.5 µM (inactive)
same,GI50,[23],18.9 µM (inactive)
same,GI50,[24],25.4 µM (inactive)
same,GI50,[25],30.8 µM (inactive)
same,GI50,[26],16.1 µM (inactive)
same,GI50,[27],34 µM (inactive)
same,GI50,[28],43.9 µM (inactive)
same,GI50,[29],39.9 µM (inactive)
same,GI50,[30],34.8 µM (inactive)
same,GI50,[31],23.2 µM (inactive)
same,GI50,[32],29.4 µM (inactive)
same,GI50,[33],31.1 µM (inactive)
same,GI50,[34],24 µM (inactive)
same,GI50,[35],31.2 µM (inactive)
same,GI50,[36],31.3 µM (inactive)
same,GI50,[37],36.2 µM (inactive)
same,GI50,[38],24.1 µM (inactive)
same,GI50,[39],31.4 µM (inactive)
same,GI50,[40],16.6 µM (inactive)
same,GI50,[41],48.3 µM (inactive)
same,GI50,[42],24.9 µM (inactive)
same,GI50,[43],26.5 µM (inactive)
same,GI50,[44],59.6 µM (inactive)
same,GI50,[45],16 µM (inactive)
same,GI50,[46],32.1 µM (inactive)
same,GI50,[47],24.9 µM (inactive)
same,GI50,[48],20.3 µM (inactive)
same,GI50,[49],40.4 µM (inactive)
same,GI50,[50],> 100 µM (inactive)
same,GI50,[51],18.8 µM (inactive)
same,GI50,[52],17.8 µM (inactive)
same,GI50,[53],24.8 µM (inactive)
same,GI50,[54],18.7 µM (inactive)
same,GI50,[55],34.6 µM (inactive)
same,GI50,[56],17.8 µM (inactive)
Cc1cccc2nc3c(=O)[nH]c(=O)nc-3n(C)c12,GI50,[1],99.3 µM (inactive)
same,GI50,[3],84.7 µM (inactive)
same,GI50,[4],> 100 µM (inactive)
same,GI50,[5],84.9 µM (inactive)
same,GI50,[6],> 100 µM (inactive)
same,GI50,[7],28.6 µM (inactive)
same,GI50,[8],30.2 µM (inactive)
same,GI50,[9],> 100 µM (inactive)
same,GI50,[10],> 100 µM (inactive)
same,GI50,[57],86.1 µM (inactive)
same,GI50,[11],30.4 µM (inactive)
same,GI50,[12],52.8 µM
same,GI50,[13],15.7 µM (inactive)
same,GI50,[14],79.6 µM (inactive)
same,GI50,[16],33.2 µM (inactive)
same,GI50,[17],86.9 µM (inactive)
same,GI50,[18],> 100 µM (inactive)
same,GI50,[19],46.6 µM (inactive)
same,GI50,[20],31.9 µM (inactive)
same,GI50,[21],54 µM (inactive)
same,GI50,[22],37.8 µM (inactive)
same,GI50,[23],34.5 µM (inactive)
same,GI50,[24],> 100 µM (inactive)
same,GI50,[25],17.6 µM (inactive)
same,GI50,[26],62.1 µM (inactive)
same,GI50,[27],43 µM (inactive)
same,GI50,[28],21.3 µM (inactive)
same,GI50,[29],> 100 µM (inactive)
same,GI50,[30],39.1 µM (inactive)
same,GI50,[31],48.1 µM (inactive)
same,GI50,[32],29.2 µM (inactive)
same,GI50,[33],82.2 µM (inactive)
same,GI50,[34],28 µM (inactive)
same,GI50,[35],45.5 µM (inactive)
same,GI50,[36],> 100 µM (inactive)
same,GI50,[37],52 µM (inactive)
same,GI50,[38],66.7 µM (inactive)
same,GI50,[39],29.7 µM (inactive)
same,GI50,[40],> 100 µM (inactive)
same,GI50,[41],50.4 µM (inactive)
same,GI50,[42],92.9 µM (inactive)
same,GI50,[43],41.1 µM (inactive)
same,GI50,[44],> 100 µM (inactive)
same,GI50,[45],48.8 µM (inactive)
same,GI50,[46],29.6 µM (inactive)
same,GI50,[47],> 100 µM (inactive)
same,GI50,[48],> 100 µM (inactive)
same,GI50,[49],71.3 µM (inactive)
same,GI50,[58],> 100 µM (inactive)
same,GI50,[50],39.9 µM (inactive)
same,GI50,[51],53.3 µM (inactive)
same,GI50,[52],> 100 µM (inactive)
same,GI50,[53],86.5 µM (inactive)
same,GI50,[54],34.4 µM (inactive)
same,GI50,[55],31.9 µM (inactive)
